Results: ChEMBL document CHEMBL1138603, “New Labdane diterpenes as intestinal alpha-glucosidase inhibitor from antihyperglycemic extract of Hedychium spicatum (Ham. Ex Smith) rhizomes” (Bioorg Med Chem Lett, 2009)
Activity calls are given as the source filed them. The rule behind the calls is not given here.

How the values were obtained:
[1] = species on record: Rattus norvegicus; assay: Inhibition of rat intestinal alpha-glucosidase activity at 100 ugmL
[2] = Inhibition of rat intestinal alpha-glucosidase activity

SMILES | inhibition [1] | IC50 [2]
CC1=CC(=O)[C@H]2C(C)(C)CCC[C@]2(C)[C@H]1/C=C/c1ccoc1 | 55.6% | –
CC(=O)OC1=C(C)[C@H](/C=C/c2ccoc2)[C@@]2(C)CCCC(C)(C)[C@@H]2C1=O | 25.7% | –
CC1=C(O)C(=O)[C@H]2C(C)(C)CCC[C@]2(C)[C@H]1/C=C/c1ccoc1 | 13.5% | –
C=C1[C@@H](O)CC2C(C)(C)CCC[C@]2(C)[C@H]1C/C=C1\CCOC1=O (stereo partly specified) | 11.3% | –
C=C1CC[C@H]2C(C)(C)CCC[C@]2(C)[C@H]1C | inactive | –
CO[C@@H]1OC(=O)C=C1/C=C/[C@H]1C(C)=CC(=O)[C@H]2C(C)(C)CCC[C@]12C | 54.1% | –
CC1(C)CCC[C@]2(C)[C@@H](/C=C/c3ccoc3)C(CO)=CC(=O)[C@@H]12 | 15.1% | –
CC1=CC(=O)[C@H]2C(C)(C)CCC[C@]2(C)[C@H]1/C=C/C1=CC(=O)OC1 | 35.1% | –
CC1=CC(=O)[C@H]2C(C)(C)CCC[C@]2(C)[C@H]1/C=C/C1=CC(=O)O[C@H]1O [SPICATANOL] | 89.5% | 34.1 µM
C[C@H]1O[C@H](O[C@H]2[C@H](O)[C@@H](O)[C@@H](O[C@H]3[C@H](O)[C@@H](O)C(O)O[C@@H]3CO)O[C@@H]2CO)[C@H](O)[C@@H](O)[C@@H]1N[C@H]1C=C(CO)[C@@H](O)[C@H](O)[C@H]1O (stereo partly specified) [ACARBOSE] | – | 23.8 µM
